Consider 18 molecules from patent publication US5140009A (Tap Pharmaceuticals, Inc., priority 1990, dated 1992).

Numbered stars: 1 amine (or outer) side, 2 acyl side, 3 side chain; on linkers, the order of the positions; unused ones are H or OH. Square brackets hold non-standard residues; d marks the D form. Peptide text beside a SMILES is read from it. * marks the point of attachment. Propanoyl(3-indol-3-yl) = O=C(CCc1c[nH]c2ccccc12)*; Propanoyl(3-(4-F-phenyl)) = O=C(CCc1ccc(F)cc1)*; Acryloyl(3-(pyridin-3-yl)) = O=C(C=Cc1cccnc1)*; Propanoyl(3-(4-Cl-Ph)) = O=C(CCc1ccc(Cl)cc1)*; X7 = CC1(C)CN(CC(=O)*)C(=O)C(c2ccccc2)=N1; Phenylacetyl(4-F) = O=C(Cc1ccc(F)cc1)*; X10 = O=C([C@@H](Cc1cncs1)N[*:1])[*:2]; 1Nal = N[C@@H](Cc1cccc2ccccc12)C(=O)O; 2Nal = N[C@@H](Cc1ccc2ccccc2c1)C(=O)O; Desaminohistidyl = O=C(CCc1c[nH]cn1)*; d1Nal = N[C@H](Cc1cccc2ccccc12)C(=O)O; Lys(iPr) = CC(C)NCCCC[C@H](N)C(=O)O; NMeY = CN[C@@H](Cc1ccc(O)cc1)C(=O)O; 1Naphthoyl = O=C(c1cccc2ccccc12)*; Cha = N[C@@H](CC1CCCCC1)C(=O)O; d2Thi = N[C@H](Cc1cccs1)C(=O)O; NHPhenethyl = c1ccc(CCN*)cc1; X9 = O=C(CCc1ccc(Br)cc1)*; Morpholide = C1CN(*)CCO1; X15 = O=C(Cc1ccc(O)cc1)*; CO = O=C([*:1])[*:2]; Bn = c1ccc(C*)cc1

In one assay the target is T1, LHRH receptors (Rattus norvegicus, UniProt P30969).
T1 construct: Pituitary membranes containing LHRH receptors are prepared in batches from quick-frozen rat pituitaries; tissue Hilltop Labs; host or cells: rat pituitary membranes
T1 sequence (P30969 1-327): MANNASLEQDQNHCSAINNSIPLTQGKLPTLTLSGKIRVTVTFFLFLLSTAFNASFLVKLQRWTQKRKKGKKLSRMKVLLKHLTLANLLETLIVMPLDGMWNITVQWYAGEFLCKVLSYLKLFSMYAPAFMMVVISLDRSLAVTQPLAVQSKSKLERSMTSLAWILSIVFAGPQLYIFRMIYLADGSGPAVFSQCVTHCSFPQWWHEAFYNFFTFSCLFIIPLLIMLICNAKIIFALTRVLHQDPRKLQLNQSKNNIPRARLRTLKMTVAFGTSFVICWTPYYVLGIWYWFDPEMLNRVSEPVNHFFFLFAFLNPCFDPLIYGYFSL
Description: Receptor Binding (radioligand receptor binding assay). The settings on record: Receptor Binding pkI, table 4; rat pituitary membranes, radioligand 50 pM, 2 hours at 4° C.
As to `CC(C)C[C@H](NC(=O)[C@@H](CCCCN)NC(=O)[C@H](Cc1ccc(O)cc1)NC(=O)[C@H](COCc1ccccc1)NC(=O)[C@@H](Cc1cccs1)NC(=O)CCc1ccc(Cl)cc1)C(=O)N[C@@H](CCCNC(=N)N)C(=O)N1CCC[C@H]1C(=O)N[C@H](C)C(N)=O` [Compound 167, (3-10)[N-(3-(4-Chlorophenyl)propionyl)-D-Thia^3 -Ser(O-Bzl)^4 -D-Lys^6 -D-Ala^10]LHRH] ({Propanoyl(3-(4-Cl-Ph))}-[d2Thi]S(Bn)Y[dK]LRP[dA]-NH2), the Ki is 0.457 nM.

Still in this assay, the particulars now being: table 3; rat pituitary membranes, radioiodinated [D-Leu^6 -des Gly^10 ]-LHRH ethyl amide 50 pM, 2 hours at 4° C.; read-out: Receptor Binding pkI (converted).
As to `CCNC(=O)[C@@H]1CCCN1C(=O)[C@H](CCCNC(=N)N)NC(=O)[C@H](CC(C)C)NC(=O)[C@@H](Cc1cccs1)NC(=O)[C@H](Cc1ccc(O)cc1)NC(=O)[C@H](CO)NC(=O)CCc1c[nH]c2ccccc12` [Compound 80, (4-9)[N-(3-(3-Indole)propionyl) -Ser^4 -D-Thia^6 -Pro^9 NHEt]LHRH] ({Propanoyl(3-indol-3-yl)}-SY[d2Thi]LRP-NHEt), the Ki was 50.1 nM.
The same measure, in the same setting: to `CCNC(=O)[C@@H]1CCCN1C(=O)[C@H](CCCNC(=N)N)NC(=O)[C@H](CC(C)C)NC(=O)[C@@H](CCCNC(=N)N)NC(=O)[C@H](Cc1ccc(O)cc1)NC(=O)[C@H](CO)NC(=O)c1cccc2ccccc12` [Compound 39, (4-9)[N-(1-Naphthoyl)-Ser^4 -D Arg^6 -Pro^9 -NHEt] LHRH] (1Naphthoyl-SY[dR]LRP-NHEt) belongs 117 nM; to `CCNC(=O)[C@@H]1CCCN1C(=O)[C@H](CCCNC(=N)N)NC(=O)[C@H](CC(C)C)NC(=O)[C@@H](Cc1c[nH]c2ccccc12)NC(=O)[C@H](Cc1ccc(O)cc1)NC(=O)[C@H](CO)NC(=O)[C@H](Cc1ccc2ccccc2c1)NC(=O)N1CCOCC1` [Compound 138, N-(N-alpha-morpholinocarbonyl) -2-Nal-Ser-Tyr-D-Trp-Leu-Arg-ProNHEt] ({Morpholide-CO}-[2Nal]SY[dW]LRP-NHEt), 1 nM.
Still for that read-out and setting: the same measure for `CCNC(=O)[C@@H]1CCCN1C(=O)[C@H](CCCNC(=N)N)NC(=O)[C@H](CC(C)C)NC(=O)[C@@H](Cc1c[nH]c2ccccc12)NC(=O)[C@H](Cc1ccc(O)cc1)NC(=O)[C@H](CO)NC(=O)C=Cc1cccnc1` [Compound 43, (4-9)[N-(3-(3-Pyridyl)acryloyl)-Ser^4 -D-Trp^6 -Pro^9 -NHEt]LHRH] ({Acryloyl(3-(pyridin-3-yl))}-SY[dW]LRP-NHEt): 646 nM; for `CCNC(=O)[C@@H]1CCCN1C(=O)[C@H](CCCNC(=N)N)NC(=O)[C@H](CC(C)C)NC(=O)[C@@H](Cc1c[nH]c2ccccc12)NC(=O)[C@H](CCCCN)NC(=O)[C@H](CO)NC(=O)[C@H](Cc1c[nH]c2ccccc12)NC(=O)[C@H](Cc1c[nH]cn1)NC(=O)CN1CC(C)(C)N=C(c2ccccc2)C1=O` [Compound 71, N-(5,6-Dihydro-5,5-dimethyl-2-oxo-3-phenyl-1-(2H)-pyrazineacetyl)-His-Trp-Ser-Lys-D-Trp-Leu-Arg-ProNHEt] (X7-HWSK[dW]LRP-NHEt): 3.16 nM.
Still for that read-out and setting: to `CCNC(=O)[C@@H]1CCCN1C(=O)[C@H](CCCNC(=N)N)NC(=O)[C@H](CC(C)C)NC(=O)[C@@H](Cc1c[nH]c2ccccc12)NC(=O)[C@H](Cc1ccc(O)cc1)NC(=O)[C@H](CO)NC(=O)Cc1ccc(O)cc1` [Compound 73, (4-9)[N-(3-(4-Hydroxyphenyl)acetyl) -Ser^4 -D-Trp^6 -Pro^9 NHEt]LHRH] (X15-SY[dW]LRP-NHEt) belongs 70.8 nM.
Turning to `CCNC(=O)[C@@H]1CCCN1C(=O)[C@H](CCCN=C(N)N)NC(=O)[C@H](CC(C)C)NC(=O)[C@@H](Cc1ccc(O)cc1)NC(=O)[C@H](Cc1ccc(O)cc1)NC(=O)[C@H](CO)NC(=O)[C@H](Cc1c[nH]c2ccccc12)NC(=O)CCc1ccc(F)cc1` [Compound 92, (3-9)[N-(3-(4-Fluorophenyl)propionyl) -Trp^3 -D-Tyr^6 -Pro^9 NHEt]LHRH] ({Propanoyl(3-(4-F-phenyl))}-WSY[dY]LRP-NHEt), the Ki is 0.0316 nM.
Consider `CCNC(=O)CC[C@@H](NC(=O)[C@H](Cc1ccc(O)cc1)NC(=O)[C@H](CO)NC(=O)CCc1c[nH]c2ccccc12)C(=O)N[C@@H](CC(C)C)C(=O)N[C@@H](CCCNC(=N)N)C(=O)N1CCC[C@H]1C(=O)NCC` [Compound 51, N-(3-(3-Indole)propionyl)-Ser-Tyr-N-delta-ethyl-D-Gln-Leu-Arg-ProNHEt] ({Propanoyl(3-indol-3-yl)}-SY[dE](NHEt)LRP-NHEt), for which the Ki was 132 nM.
With `CCNC(=O)[C@@H]1CCCN1C(=O)[C@H](CCCNC(=N)N)NC(=O)[C@H](CC(C)C)NC(=O)[C@@H](Cc1c[nH]c2ccccc12)NC(=O)[C@H](Cc1ccc(O)cc1)NC(=O)[C@H](CO)NC(=O)[C@H](Cc1c[nH]c2ccccc12)NC(=O)[C@H](Cc1ccccc1)NC(=O)NCCc1ccccc1` [Compound 124, (2-9)[N-(N-alpha-Phenethylaminocarbonyl)-Phe^2 -D-Trp^6 -Pro^9 NHEt]LHRH] ({NHPhenethyl-CO}-FWSY[dW]LRP-NHEt), the Ki was 0.347 nM.
Still for that read-out and setting: the same measure for `CCNC(=O)[C@@H]1CCCN1C(=O)[C@H](CCCNC(=N)N)NC(=O)[C@H](CC(C)C)NC(=O)[C@@H](Cc1c[nH]c2ccccc12)NC(=O)[C@H](Cc1ccc(O)cc1)NC(=O)[C@H](CO)NC(=O)[C@H](Cc1c[nH]c2ccccc12)NC(=O)[C@H](Cc1c[nH]cn1)NC(=O)CCc1cnc[nH]1` [Compound 69, N-(3-(5-Imidazolyl)propionyl)-His-Trp-Ser-Tyr-D-Trp-Leu-Arg-Pro-NHEt] (Desaminohistidyl-HWSY[dW]LRP-NHEt): 1.05 nM; for `CCNC(=O)[C@@H]1CCCN1C(=O)[C@H](CCCNC(=N)N)NC(=O)[C@H](CC(C)C)NC(=O)[C@@H](Cc1c[nH]c2ccccc12)NC(=O)[C@H](Cc1ccc(O)cc1)NC(=O)[C@H](CO)NC(=O)Cc1ccc(F)cc1` [Compound 74, (4-9)[N-(3-(4-Fluorophenyl)acetyl) -Ser^4 -D-Trp^6 -Pro^9 NHEt]LHRH] ({Phenylacetyl(4-F)}-SY[dW]LRP-NHEt): 26.3 nM.

The same assay, now with this note: table 4; rat pituitary membranes, radioligand 50 pM, 2 hours at 4° C.; read-out: Receptor Binding pkI (converted).
In the case of `CCNC(=O)[C@@H]1CCCN1C(=O)[C@H](CCCN=C(N)N)NC(=O)[C@H](CC(C)C)NC(=O)[C@@H](Cc1c[nH]c2ccccc12)NC(=O)[C@H](Cc1ccc(O)cc1)NC(=O)[C@H](CO)NC(=O)[C@H](Cc1cccc2ccccc12)NC(=O)CCc1ccc(F)cc1` [Compound 144, (3-9)[N-(3-(4-Fluorophenyl)propionyl) -1-Nal^3 -D-Trp^6 -Pro^9 NHEt]LHRH] ({Propanoyl(3-(4-F-phenyl))}-[1Nal]SY[dW]LRP-NHEt), the Ki was 0.0257 nM.
On the same count and under the same terms, to `CC(C)C[C@H](NC(=O)[C@@H](CCCCN)NC(=O)[C@H](Cc1ccc(O)cc1)N(C)C(=O)[C@H](CO)NC(=O)[C@@H](Cc1cccc2ccccc12)NC(=O)CCc1ccc(F)cc1)C(=O)N[C@@H](CCCCNC(C)C)C(=O)N1CCC[C@H]1C(=O)N[C@H](C)C(N)=O` [Compound 199, (3-10)[N-(3-(4-Fluorophenyl)propionyl)-D-1-Nal^3 -NMeTyr^5 -D-Lys^6 -Lys^8 (N-epsilon-isopropyl)-D-Ala^10]LHRH] ({Propanoyl(3-(4-F-phenyl))}-[d1Nal]S[NMeY][dK]L[Lys(iPr)]P[dA]-NH2) belongs 0.00832 nM.
In the case of `CCNC(=O)N[C@@H](Cc1ccccc1)C(=O)N[C@@H](Cc1cccc2ccccc12)C(=O)N[C@@H](CO)C(=O)N[C@@H](Cc1ccc(O)cc1)C(=O)N[C@H](Cc1c[nH]c2ccccc12)C(=O)N[C@@H](CC(C)C)C(=O)N[C@@H](CCCNC(=N)N)C(=O)N1CCC[C@H]1C(=O)NCC` [Compound 239, (2-9)[N-(alpha-Ethylaminocarbonyl)-Phe^2-1-Nal^3 -D-Trp^6 -Pro^9 NHEt]LHRH] ({NHEt-CO}-F[1Nal]SY[dW]LRP-NHEt), the Ki is 0.832 nM.
Same read-out and setting: to `CC(C)C[C@H](NC(=O)[C@@H](Cc1cncs1)NC(=O)[C@H](Cc1ccc(O)cc1)N(C)C(=O)[C@H](CO)NC(=O)[C@@H](Cc1cccc2ccccc12)NC(=O)CCc1ccc(F)cc1)C(=O)N[C@@H](CCCCNC(C)C)C(=O)N1CCC[C@H]1C(=O)N[C@H](C)C(N)=O` [Compound 204, (3-10)[N-(3-(4-Fluorophenyl)propionyl)-D-1-Nal^3 -NMeTyr^5 -D-Thiaz6-Lys^8 (N-epsilon-isopropyl)-D-Ala^10]LHRH] ({Propanoyl(3-(4-F-phenyl))}-[d1Nal]S[NMeY][X10]L[Lys(iPr)]P[dA]-NH2) belongs 0.0214 nM.
`C[C@@H](NC(=O)[C@@H]1CCCN1C(=O)[C@H](CCCNC(=N)N)NC(=O)[C@H](CC1CCCCC1)NC(=O)[C@@H](CCCCN)NC(=O)[C@H](Cc1ccc(O)cc1)N(C)C(=O)[C@H](CO)NC(=O)[C@@H](Cc1cccc2ccccc12)NC(=O)CCc1ccc(F)cc1)C(N)=O` [Compound 185, (3-10)[N-(3-(4-Fluorophenyl)propionyl)-D-1-Nal^3 -NMeTyr^5 -D-Lys^6 -Cha^7 -D-Ala^10]LHRH] ({Propanoyl(3-(4-F-phenyl))}-[d1Nal]S[NMeY][dK][Cha]RP[dA]-NH2): the Ki is 0.0155 nM.
The same measure, in the same setting: to `CCNC(=O)[C@@H]1CCCN1C(=O)[C@H](CCCNC(=N)N)NC(=O)[C@H](CC(C)C)NC(=O)[C@@H](Cc1c[nH]c2ccccc12)NC(=O)[C@H](Cc1ccc(O)cc1)N(C)C(=O)[C@H](CO)NC(=O)[C@@H](Cc1cccc2ccccc12)NC(=O)CCc1ccc(Br)cc1` [Compound 159, (3-9)[N-(3-(4-Bromophenyl)propionyl)-D -1-Nal^3 -NMeTyr^5 -DTrp^6 -Pro^9 NHEt]LHRH] (X9-[d1Nal]S[NMeY][dW]LRP-NHEt) belongs 0.0562 nM.
